According to patent US20260272908A1 (VANDERBILT UNIVERSITY, priority 2023, published 2026):

System: p-STAT3^Y705
Assay: Western blot for phospho-STAT3 in hPCO lines
Type: cell-based, human
From the text: FIG. 7C-7D show Western blot analysis for p-STAT3 and p-ERK in three Pyr-resistant hPCO lines after Pyr treatment (FIG. 7C) and ratios of p-STAT3/t-STAT3 and p-ERK/t-ERK (FIG. 7D). FIG. 7E-7F show a Western blot for basal p-STAT3 and p-ERK levels in Pyr-sensitive and Pyr-resistant hPCO lines (FIG. 7E), and ratios of p-STAT3/t-STAT3 and p-ERK/t-ERK (FIG. 7F). FIG. 7G-7H show a Western blot for p-STAT3 and p-ERK in hPCO-3 after treatment of trametinib (Tra), Pyr, and their combinations (FIG. 7G), and ratios of p-STAT3/t-STAT3 and p-ERK/t-ERK (FIG. 7H). […] FIG. 7K-7L show phase-contrast images of Pyr-sensitive hPCO-2 treated with DMSO, Pyr, STAT3-IN-1, Sttatic, and Cryptotanshinone (CPT) for 6 days (FIG. 7K) and quantitation of organoid diameters before and after treatment (FIG. 7L). Mean±standard deviation. […]
Total proteins were extracted from organoids using radioimmunoprecipitation assay buffer (10 mmol/L Tris-HC, pH 7.2, 150 mmol/L NaCl, 5 mmol/L EDTA, 0.1% sodium dodecyl sulfate, 1.0% Triton X-100, 1% deoxycholate) with protease inhibitors. The protein concentration was measured The Bio-Rad Protein Assay (Bio-Rad Laboratories, Hercules, CA). […] After washes with TBS-T, chemiluminescence was detected with an Amersham Imager 680 instrument (GE Healthcare) after 1 mL of the SuperSignal West Femto Maximum Sensitivity Substrate (ThermoFisher) was applied to the membranes.

SMILES: Cc1cc(/C=C/c2ccc3cc(N(C)C)ccc3[n+]2C)c(C)n1-c1ccccc1 [pyrvinium]
- p-STAT3^Y705 levels (three pyrvinium-resistant hPCO lines): no significant differences
- p-STAT3^Y705 levels (three pyrvinium-sensitive hPCO lines): decreased
